Test results reported in PubChem BioAssay AID1745844 (Carcinogenic Potency Database (CPDB), 2022).
Activity calls are given as the source filed them. The rule behind the calls is not given here.

System: rodent lifetime carcinogenesis bioassay, tumor incidence TD50
Test: chronic cancer bioassays in animals – CPDB, compiled studies (AID 1745844)
Details: rat

CCCCN(N=O)C(N)=O
TD50 (strain F344/DuCrj, females, in drinking water, site: all sites, lesion: several types, types named in the paper, dosed 50 weeks, study length 50 weeks): 24.7 mg/kg/day | TD50 (strain F344/DuCrj, females, in drinking water, site: digestive tract, lesion: several types, types named in the paper, dosed 50 weeks, study length 50 weeks): 1.3 mg/kg/day | TD50 (strain F344/DuCrj, females, in drinking water, site: ear duct, lesion: several types, types named in the paper, dosed 50 weeks, study length 50 weeks): 11.6 mg/kg/day | TD50 (strain F344/DuCrj, females, in drinking water, site: ear duct, lesion: squamous-cell carcinoma, sebaceous, dosed 50 weeks, study length 50 weeks): 19.4 mg/kg/day | TD50 (strain F344/DuCrj, females, in drinking water, site: esophagus, lesion: papilloma, dosed 50 weeks, study length 50 weeks): 6.58 mg/kg/day | TD50 (strain F344/DuCrj, females, in drinking water, site: esophagus, lesion: several types, types named in the paper, dosed 50 weeks, study length 50 weeks): 3.21 mg/kg/day | TD50 (strain F344/DuCrj, females, in drinking water, site: esophagus, lesion: squamous-cell carcinoma, dosed 50 weeks, study length 50 weeks): 8.05 mg/kg/day | TD50 (strain F344/DuCrj, females, in drinking water, site: forestomach, lesion: papilloma, dosed 50 weeks, study length 50 weeks): 4 mg/kg/day | TD50 (strain F344/DuCrj, females, in drinking water, site: forestomach, lesion: several types, types named in the paper, dosed 50 weeks, study length 50 weeks): 2.43 mg/kg/day | TD50 (strain F344/DuCrj, females, in drinking water, site: forestomach, lesion: squamous-cell carcinoma, dosed 50 weeks, study length 50 weeks): 10.2 mg/kg/day | TD50 (strain F344/DuCrj, females, in drinking water, site: pharynx, lesion: several types, types named in the paper, dosed 50 weeks, study length 50 weeks): 8.05 mg/kg/day | TD50 (strain F344/DuCrj, females, in drinking water, site: pharynx, lesion: squamous-cell carcinoma, dosed 50 weeks, study length 50 weeks): 10.2 mg/kg/day | TD50 (strain F344/DuCrj, females, in drinking water, site: tongue, lesion: papilloma, dosed 50 weeks, study length 50 weeks): 13.5 mg/kg/day | TD50 (strain F344/DuCrj, females, in drinking water, site: tongue, lesion: several types, types named in the paper, dosed 50 weeks, study length 50 weeks): 10.2 mg/kg/day | TD50 (strain F344/DuCrj, females, in drinking water, site: vagina, lesion: papilloma, dosed 50 weeks, study length 50 weeks): 6 mg/kg/day | TD50 (strain F344/DuCrj, females, in drinking water, site: vagina, lesion: several types, types named in the paper, dosed 50 weeks, study length 50 weeks): 5.05 mg/kg/day | TD50 (strain F344/DuCrj, males, in drinking water, site: all sites, lesion: several types, types named in the paper, dosed 50 weeks, study length 50 weeks): 10.2 mg/kg/day | TD50 (strain F344/DuCrj, males, in drinking water, site: digestive tract, lesion: several types, types named in the paper, dosed 50 weeks, study length 50 weeks): 0.91 mg/kg/day | TD50 (strain F344/DuCrj, males, in drinking water, site: duodenum, lesion: several types, types named in the paper, dosed 50 weeks, study length 50 weeks): 11.8 mg/kg/day | TD50 (strain F344/DuCrj, males, in drinking water, site: ear duct, lesion: several types, types named in the paper, dosed 50 weeks, study length 50 weeks): 11.8 mg/kg/day | TD50 (strain F344/DuCrj, males, in drinking water, site: esophagus, lesion: papilloma, dosed 50 weeks, study length 50 weeks): 4.08 mg/kg/day | TD50 (strain F344/DuCrj, males, in drinking water, site: esophagus, lesion: several types, types named in the paper, dosed 50 weeks, study length 50 weeks): 3.02 mg/kg/day | TD50 (strain F344/DuCrj, males, in drinking water, site: esophagus, lesion: squamous-cell carcinoma, dosed 50 weeks, study length 50 weeks): 17 mg/kg/day | TD50 (strain F344/DuCrj, males, in drinking water, site: forestomach, lesion: papilloma, dosed 50 weeks, study length 50 weeks): 3.25 mg/kg/day | TD50 (strain F344/DuCrj, males, in drinking water, site: forestomach, lesion: several types, types named in the paper, dosed 50 weeks, study length 50 weeks): 2.62 mg/kg/day | TD50 (strain F344/DuCrj, males, in drinking water, site: palate, soft, lesion: several types, types named in the paper, dosed 50 weeks, study length 50 weeks): 11.8 mg/kg/day | TD50 (strain F344/DuCrj, males, in drinking water, site: palate, soft, lesion: squamous-cell carcinoma, dosed 50 weeks, study length 50 weeks): 17 mg/kg/day | TD50 (strain Fischer 344, females, by gavage, site: colon, lesion: one or several types, types not named, dosed 40 weeks, study length 104 weeks): 2.31 mg/kg/day | TD50 (strain Fischer 344, females, by gavage, site: forestomach, lesion: one or several types, types not named, dosed 40 weeks, study length 104 weeks): 0.267 mg/kg/day | TD50 (strain Fischer 344, females, by gavage, site: lung, lesion: several types, types named in the paper, dosed 40 weeks, study length 104 weeks): 0.277 mg/kg/day | TD50 (strain Fischer 344, females, by gavage, site: mammary gland, lesion: adenocarcinoma, dosed 40 weeks, study length 104 weeks): 0.758 mg/kg/day | TD50 (strain Fischer 344, females, by gavage, site: uterus, lesion: several types, types named in the paper, dosed 40 weeks, study length 104 weeks): 0.551 mg/kg/day | TD50 (strain Fischer 344, males, by gavage, site: colon, lesion: one or several types, types not named, dosed 40 weeks, study length 104 weeks): 1.61 mg/kg/day | TD50 (strain Fischer 344, males, by gavage, site: forestomach, lesion: one or several types, types not named, dosed 40 weeks, study length 104 weeks): 0.259 mg/kg/day | TD50 (strain Fischer 344, males, by gavage, site: lung, lesion: several types, types named in the paper, dosed 40 weeks, study length 104 weeks): 0.187 mg/kg/day | TD50 (strain MRC-Wistar, females, in drinking water, site: all sites, lesion: myelocytic leukemia, dosed 39 weeks, study length 85 weeks): 3.27 mg/kg/day | TD50 (strain MRC-Wistar, females, in drinking water, site: any site (literature study), lesion: one or several types, types not named, dosed 39 weeks, study length 85 weeks): 1.02 mg/kg/day | TD50 (strain MRC-Wistar, females, in drinking water, site: liver, lesion: one or several types, types not named, dosed 39 weeks, study length 85 weeks): 6.63 mg/kg/day | TD50 (strain MRC-Wistar, females, in drinking water, site: mammary gland, lesion: one or several types, types not named, dosed 39 weeks, study length 85 weeks): 6.63 mg/kg/day (inactive) | TD50 (strain MRC-Wistar, males, in drinking water, site: all sites, lesion: myelocytic leukemia, dosed 39 weeks, study length 85 weeks): 2.86 mg/kg/day | TD50 (strain MRC-Wistar, males, in drinking water, site: any site (literature study), lesion: one or several types, types not named, dosed 39 weeks, study length 85 weeks): 1.64 mg/kg/day | TD50 (strain MRC-Wistar, males, in drinking water, site: liver, lesion: one or several types, types not named, dosed 39 weeks, study length 85 weeks): 26.1 mg/kg/day

CCCCCCCC/C=C\CCCCCCCC(=O)O
carcinogen call (strain F344/DuCrj, females, in drinking water, site: any site (literature study), lesion: several types, types named in the paper, dosed 108 weeks, study length 108 weeks): negative (inactive) | carcinogen call (strain F344/DuCrj, females, in drinking water, site: liver, lesion: hyperplastic nodule, dosed 108 weeks, study length 108 weeks): negative (inactive) | carcinogen call (strain F344/DuCrj, males, in drinking water, site: any site (literature study), lesion: several types, types named in the paper, dosed 108 weeks, study length 108 weeks): negative (inactive) | TD50 (strain F344/DuCrj, males, in drinking water, site: liver, lesion: hyperplastic nodule, dosed 108 weeks, study length 108 weeks): 29100 mg/kg/day (inactive) | TD50 (strain F344/DuCrj, males, in drinking water, site: liver, lesion: several types, types named in the paper, dosed 108 weeks, study length 108 weeks): 39300 mg/kg/day (inactive) | TD50 (strain F344/DuCrj, males, in drinking water, site: pancreas, lesion: insuloma, dosed 108 weeks, study length 108 weeks): 12600 mg/kg/day (inactive) | TD50 (strain F344/DuCrj, males, in drinking water, site: pancreas, lesion: several types, types named in the paper, dosed 108 weeks, study length 108 weeks): 10100 mg/kg/day (inactive)
